In paper PMC4320118, “Micheliolide Derivative DMAMCL Inhibits Glioma Cell Growth In Vitro and In Vivo” (PLoS ONE, 2015):
Where two headings read alike, the source gives them in different places.

How the values were obtained:
[1] = system: Bcl-2 and Bax in U-87MG cells; experiment: Western blotting of Bcl-2 and Bax, U-87MG cells; format: cell-based, human; details: 60 μM and 120μM, 24 hr
Protocol: (§1) The cellular proteins were extracted from 10^7 cultured cells after drug treatments using RIPA lysis buffer (Promega, USA). Western blotting analysis was performed to determine cellular responses targeting apoptosis-related proteins including Bcl-2 and Bax. Briefly, C6 and U-87MG cells were treated with different doses of DMAMCL for 24 hr at 37°C. Then cells were washed twice with cold phosphate buffered saline (PBS) and lysed in RIPA buffer containing 1mmol/l PMSF (Pheylmethylsulfonyl fluoride, Sigma, USA) on ice for 30 min. The total proteins of cells were obtained by centrifugation at 12000 rpm for 15 min. Next, the lysate proteins were resolved by SDS-PAGE and transferred to the Immobilon-P membranes (Millipore, Billerica, MA, USA). The membranes were blocked by 5% nonfat milk in Tris-buffered saline with 0.1% Tween 20 (TBST) and immunoblotted with the antibodies against β-actin, Bcl-2 and Bax (Cellsignaling Technology, USA) at 4°C overnight. Then membranes were incubated with HRP-conjugated secondary antibody for 1.5 hr at room temperature. The targeting antibodies were stained with enhanced chemiluminescent reagents (Millipore, Billerica, MA, USA) and visualized by ChemiScope 3600 Mini systerm (Clinx Science Instruments, China).

U-87MG cells = experiment: Apoptosis by Annexin V/PI flow cytometry, U-87MG; format: cell-based, human
AML models = details: cited from earlier work
C6 cells [2] = experiment: Apoptosis by Annexin V/PI flow cytometry, C6; format: cell-based, rat
Protocol: Glioma cells (10^4) in the logarithmic growth phase were seeded in 6-well plates for 24 h. Cells were treated with DMAMCL at 240, 120, 60, 30, 15, or 0 μM. They were removed from culture plates with 0.5% trypsin containing ethylene diamine tetraacetic acid (EDTA). Apoptosis of C6 cells was measured using an Annexin V and propidium iodide (PI) apoptosis detection kit (Invitrogen, USA) and a Beckman flow cytometer (Cytomics FC500, Beckman Coulter, USA).

C6 cells [3] = experiment: Cell proliferation MTT assay, C6; format: cell-based; details: Rattus norvegicus, 72 h
Protocol: C6 and U-87MG cell lines were obtained from the American Type Culture Collection (ATCC) and cultured in our laboratory. Rat C6 glioma cells were cultured in F12K nutrient medium (Gibco, Grand Island, […]) supplemented with 15% horse serum (Auckland, NZ), 2.5% fetal bovine serum (FBS), 100 U/mL penicillin, and […] streptomycin (Gibco, Paisley, Scotland, UK). Human U-87MG cells were cultured in minimum essential medium (MEM) supplemented with 10% FBS, 1% nonessential amino acids, 100 U/mL penicillin, and […] streptomycin. Cells were cultured under a humidified atmosphere containing 5% CO2 at 37°C, and medium was changed every 1 to 2 days.
Tumor cells were seeded in 96-well plates at a density of 3500 cells/well. After 24 h in culture, cells were exposed to different concentrations of DMAMCL or medium alone (control) for 72 h. Cell viability was determined by MTT assays. Briefly, MTT regent (0.5 mg/mL) was added to wells, and cells were incubated for 4 h at 37°C. After removing the supernatant, 200 μL of dimethyl sulfoxide (DMSO) (Fluka, Switzerland) was added to dissolve formazan crystals. The absorbance at 570 nm was measured by a microplate reader (Thermo Labsystems, Helsinki, Finland). Control absorbance was taken as 100%. The absorbance of DMAMCL-treated cells was taken as percentage survival. […]

[4] = system: Bcl-2 and Bax in C6 cells; experiment: Western blotting of Bcl-2 and Bax, C6 cells; format: cell-based, rat; details: 60 μM and 120μM, 24 hr
Protocol: as §1

intracerebral C6 glioma = system: intracerebral C6 glioma
Protocol: Adult Wistar rats (120–180 g, age 4–8 weeks) were obtained from the Animal Center at the Academy of Military Medical Sciences and had animal certification of SCXK (army) 2012–001. Animals were housed in collective cages at a temperature of 23 ± 2°C and relative humidity of 40% to 70%. All rats had free access to food and water.
Intracerebral tumor implantations were performed according to the following procedures. C6 tumors were maintained as subcutaneous tumors in rats. Subcutaneous masses were excised, dissociated, and mixed with matrigel on ice (BD Biosciences) at a ratio of 1:1. After removing of the hair on the skull, a small midline incision in the scalp was gently made under anesthesia with 2% sodium pentobarbital at a dose of 40mg/kg. C6 cells in matrigel (0.1 mL of the cell/matrigel mixture containing 10^8 cells /mL) were carefully injected into the right frontal cortex by a special 16-gauge stainless steel needle with 5 mm needle tubing. Implantation coordinates were determined from Swanson’s Stereotaxic Atlas guidelines (1992): 1.0 mm anterior and 3.0 mm lateral to bregma, at a depth of 5.0 mm from the brain surface. […] The syringe was slowly retracted, the hole was sealed with bone wax, and the incision was sutured under aseptic conditions. […] Then 0.015 mg/kg buprenorphine (s.c.) was administered to relieve the pain. The rats were replaced in cages and allowed to recover from anesthesia.
Rats were divided into the following 5 treatment groups 24 h after surgery (n = 9 rats /group) according to rat weight: 1) vehicle (normal saline: NS); 2) vincristine (VCR) at 100μg/kg; 3) DMAMCL at 25 mg/kg; 4) DMAMCL at 50 mg/kg; and 5) DMAMCL at 100 mg/kg. All drugs were prepared in NS and administered once daily for 21 days. DMAMCL was administered orally, and VCR was injected into the caudal vein. Rats were weighed and monitored for signs of mortality daily. Twenty one days into the treatment, rats were euthanized via CO2 asphyxiation under deep anesthesia by sodium pentobarbital. Brains and tumors were separated from the cerebellum and medulla oblongata, and weighed, photographed, fixed in formalin, and embedded in paraffin for sectioning. The tumor: brain weight ratio was assessed to observe the degree of tumor cell growth in brain. Serial sections (5 μm in thickness) were stained by hematoxylin and eosin (HE).

[5] = 24 hr post-treatment, dose-dependent
[6] = DMAMCL 25 mg/kg orally once daily for 21 days
[7] = DMAMCL 50 mg/kg orally once daily for 21 days
[8] = DMAMCL 100 mg/kg orally once daily for 21 days

For CC1=C2CC[C@@](C)(O)[C@@H]2[C@H]2OC(=O)[C@@H](CN(C)C)[C@@H]2CC1 [DMAMCL, dimethylaminomicheliolide], the “Bax expression (Western blot)” value [1] was “up-regulated Bax expression”, the “Bcl-2 expression (Western blot)” value [1] was “down-regulated Bcl-2 expression” and the Surviving cells (U-87MG cells; 240 μM) was “few surviving”. For the same compound, the “Early and late apoptosis and necrosis” value (U-87MG cells; [5]) was “significantly increased early and late apoptosis and necrosis”, the “Therapeutic efficacy in AML models” value (AML models) was “superior therapeutic efficacy” and the Surviving cells (C6 cells [2]; 240 μM) was “few surviving”. The “Early and late apoptosis and necrosis” value (C6 cells [2]; [5]) was “significantly increased early and late apoptosis and necrosis”, the IC50 (C6 cells [3]; read-out: IC50) was 27.2 ± 1.89 µM and the IC50 (C6 cells [3]; read-out: x0 (midpoint of logistic fit, Fig 3A) (converted)) was 27.2 ± 1.89 µM. The “Bax expression (Western blot)” value [4] was “up-regulated Bax expression”, the “Bcl-2 expression (Western blot)” value [4] was “down-regulated Bcl-2 expression” and the “Body weight End” value (intracerebral C6 glioma; [6]) was 223.8 ± 13.1 g. For the same compound, the “Inhibition (percent decrease in tumor weight compared to the vehicle group)” value (intracerebral C6 glioma; [6]) was 59.9%, the Tumor weight (intracerebral C6 glioma; [6]) was 0.29 ± 0.20 g and the Tumor/brain (intracerebral C6 glioma; [6]) was 15.0 ± 9.5 %. For the same compound, the “Rats surviving to the end of the study” value (intracerebral C6 glioma; DMAMCL 25 mg/kg, 21 days) was 89%, the “Body weight End” value (intracerebral C6 glioma; [7]) was 227.5 ± 11.9 g and the “Inhibition (percent decrease in tumor weight compared to the vehicle group)” value (intracerebral C6 glioma; [7]) was 78.7%. For the same compound, the Tumor weight (intracerebral C6 glioma; [7]) was 0.15 ± 0.12 g, the Tumor/brain (intracerebral C6 glioma; [7]) was 6.3 ± 3.9 % and the “Rats surviving to the end of the study” value (intracerebral C6 glioma; DMAMCL 50 mg/kg, 21 days) was 89%. For the same compound, the “Body weight End” value (intracerebral C6 glioma; [8]) was 224.0 ± 12.1 g, the “Inhibition (percent decrease in tumor weight compared to the vehicle group)” value (intracerebral C6 glioma; [8]) was 87.5% and the “Signs of toxicity in tumor-bearing rats” value (intracerebral C6 glioma; [8]) was “no signs of systemic or intracranial toxicity”. The Tumor weight (intracerebral C6 glioma; [8]) was 0.09 ± 0.09 g, the Tumor/brain (intracerebral C6 glioma; [8]) was 4.2 ± 3.1 % and the “Histopathology of brain tissue (HE)” value (intracerebral C6 glioma; DMAMCL 100 mg/kg, 21 days) was “appeared similar to normal brain tissues”. The “Rats surviving to the end of the study” value (intracerebral C6 glioma; DMAMCL 100 mg/kg, 21 days) was 100%.
